In the NIST ThermoML archive (doi:10.1021/je7003066):

Columns and labels:
[1] = 101.33 kPa, Liquid; for viscosity: Capillary tube (Ostwald / Ubbelohde) method
[2] = molar heat capacity at constant pressure; conditions: 101.33 kPa, Liquid, Small sample (50 mg) DSC
[3] = refractive index (Na D-line) (dimensionless); conditions: 101.33 kPa, Liquid, Standard Abbe refractometry

CC1CCCO1 (configuration not stated) [2-methyltetrahydrofuran]
Conditions | mass density, [1] [kg/m3] | molar heat capacity at constant pressure, [2] [J/K/mol] | refractive index, [3] | viscosity, [1] [mPa·s]
293.15 K | 852.95 | 155.3 | 1.4085 | 0.492
303.15 K | 842.8 | 158.6 | 1.4017 | 0.443
313.15 K | 832.38 | 162.1 | 1.3959 | 0.416
